Experimental data: ChEMBL document CHEMBL1201862, “PubChem BioAssay data set” (2004)
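Step 1: Grow cells in 96-well plates. Step 2: Expose to compound for 48 hours at 5 concentrations. Step 3: Interpolate endpoints linearly; if unreached, use highest concentration. GI50 = concentration required for 50% inhibition of growth.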 The source made the active and inactive calls. Cut-off read from the data, not from the text of the source: active = GI50 up to about 1.1 µM and inactive = higher.

Experiments:
Assay in all cases: NCI-60 cell line screen, 48 h
SF-295 = tested on: SF-295
OVCAR-8 = tested on: OVCAR-8
786-0 = tested on: 786-0
EKVX = tested on: EKVX
CAKI-1 = tested on: CAKI-1
HCT-116 = tested on: HCT-116
A498 = tested on: A498
MDA-MB-435 = tested on: MDA-MB-435
HOP-92 = tested on: HOP-92
SK-MEL-2 = tested on: SK-MEL-2
SR = tested on: SR
HCT-15 = tested on: HCT-15
ACHN = tested on: ACHN
NCI-H460 = tested on: NCI-H460
TK-10 = tested on: TK-10
UACC-257 = tested on: UACC-257
RPMI-8226 = tested on: RPMI-8226
OVCAR-3 = tested on: OVCAR-3
IGROV-1 = tested on: IGROV-1
NCI/ADR-RES = tested on: NCI/ADR-RES

Row | SMILES | GI50 (SF-295) | GI50 (OVCAR-8) | GI50 (786-0) | GI50 (EKVX) | GI50 (CAKI-1) | GI50 (HCT-116) | GI50 (A498) | GI50 (MDA-MB-435) | GI50 (HOP-92) | GI50 (SK-MEL-2) | GI50 (SR) | GI50 (HCT-15) [µM] | GI50 (ACHN) | GI50 (NCI-H460) | GI50 (TK-10) | GI50 (UACC-257) | GI50 (RPMI-8226) | GI50 (OVCAR-3) | GI50 (IGROV-1) | GI50 (NCI/ADR-RES)
1 | CSc1nnc(SCc2nn3c(=O)cc(C)nc3s2)s1 | > 100 µM (inactive) | > 100 µM (inactive) | > 100 µM (inactive) | > 100 µM (inactive) | > 100 µM (inactive) | > 100 µM (inactive) | > 100 µM (inactive) | > 100 µM (inactive) | > 100 µM (inactive) | > 100 µM (inactive) | > 100 µM (inactive) | > 100 | > 100 µM (inactive) | > 100 µM (inactive) | > 100 µM (inactive) | > 100 µM (inactive) | > 100 µM (inactive) | > 100 µM (inactive) | > 100 µM (inactive) | > 100 µM (inactive)
2 | Nc1nn2c(=O)c3ccccc3nc2s1 | > 100 µM (inactive) | 30 µM (inactive) | 42.5 µM (inactive) | > 100 µM (inactive) | > 100 µM (inactive) | 57.3 µM (inactive) | > 100 µM (inactive) | > 100 µM (inactive) | > 100 µM (inactive) | > 100 µM (inactive) | 20.5 µM (inactive) | 44.9 | > 100 µM (inactive) | > 100 µM (inactive) | > 100 µM (inactive) | > 100 µM (inactive) | 32.4 µM (inactive) | > 100 µM (inactive) | 65.5 µM (inactive) | > 100 µM (inactive)
3 | CCN(CC)CCNc1ccc([N+](=O)[O-])c2nc3ccc(OC)cc3c(N)c12 | 1.37 µM (inactive) | 1.47 µM (inactive) | 0.614 µM (active) | 1.7 µM (inactive) | 1.89 µM (inactive) | 0.151 µM (active) | 1.5 µM (inactive) | 1.45 µM (inactive) | 1.34 µM (inactive) | 1.05 µM (active) | 0.262 µM (active) | 1.27 | 1.43 µM (inactive) | 1.22 µM (inactive) | 1.57 µM (inactive) | 1.77 µM (inactive) | 0.243 µM (active) | 1.86 µM (inactive) | 0.435 µM (active) | 1.24 µM (inactive)
4 | COc1ccc(S(=O)(=O)N2C(=O)CCC2C(=O)NC(N)=O)cc1 (stereo not drawn) | > 100 µM (inactive) | > 100 µM (inactive) | > 100 µM (inactive) | > 100 µM (inactive) | > 100 µM (inactive) | > 100 µM (inactive) | > 100 µM (inactive) | > 100 µM (inactive) | > 100 µM (inactive) | > 100 µM (inactive) | > 100 µM (inactive) | > 100 | > 100 µM (inactive) | > 100 µM (inactive) | > 100 µM (inactive) | > 100 µM (inactive) | > 100 µM (inactive) | > 100 µM (inactive) | > 100 µM (inactive) | > 100 µM (inactive)
5 | Cn1c(=O)c2ccccc2[n+]2c(-c3cccc([N+](=O)[O-])c3)csc12 | 44.8 µM (inactive) | 18 µM (inactive) | 54.3 µM (inactive) | 25.2 µM (inactive) | 73.5 µM (inactive) | 67.5 µM (inactive) | 58.9 µM (inactive) | 63.7 µM (inactive) | > 100 µM (inactive) | 36.4 µM (inactive) | 18.6 µM (inactive) |  | > 100 µM (inactive) | 36.7 µM (inactive) | 36.4 µM (inactive) | > 100 µM (inactive) | 28.1 µM (inactive) | 39.4 µM (inactive) | 68.1 µM (inactive) | 9.51 µM (inactive)
6 | CC1=Nc2c(C#N)ncn2N=C(C)C1 | > 100 µM (inactive) |  | > 100 µM (inactive) |  | > 100 µM (inactive) | > 100 µM (inactive) | > 100 µM (inactive) | > 100 µM (inactive) | > 100 µM (inactive) | > 100 µM (inactive) | > 100 µM (inactive) |  | > 100 µM (inactive) | > 100 µM (inactive) | > 100 µM (inactive) | > 100 µM (inactive) | > 100 µM (inactive) | > 100 µM (inactive) | > 100 µM (inactive) | > 100 µM (inactive)
7 | COc1ccc(/C=C\c2cc(OC)c(OC)c(OC)c2)cc1OCC(=O)O | 12.7 µM (inactive) | 5.64 µM (inactive) | 37.6 µM (inactive) | > 96.8 µM (inactive) | 48.2 µM (inactive) | 3.46 µM (inactive) | 31.1 µM (inactive) | 1.72 µM (inactive) | 9.89 µM (inactive) | 6.68 µM (inactive) | 3.89 µM (inactive) | 9.62 | 10.2 µM (inactive) | 4.43 µM (inactive) | > 97.3 µM (inactive) | 5.61 µM (inactive) | 4.84 µM (inactive) | 2.69 µM (inactive) | 46.8 µM (inactive) | 2.21 µM (inactive)
8 | OCCCc1cc(O)c2c(c1)C(CO)C(c1ccc(O)c(O)c1)O2 (stereo not drawn) | > 100 µM (inactive) | > 100 µM (inactive) | > 100 µM (inactive) | > 100 µM (inactive) | > 100 µM (inactive) | > 100 µM (inactive) | > 100 µM (inactive) | > 100 µM (inactive) | > 100 µM (inactive) | > 100 µM (inactive) | > 100 µM (inactive) | > 100 | > 100 µM (inactive) | > 100 µM (inactive) | > 100 µM (inactive) | > 100 µM (inactive) | > 10 µM (inactive) | > 100 µM (inactive) | > 100 µM (inactive) | > 100 µM (inactive)
9 | CC1=NN(c2nc(N)nc(C(C)Cl)n2)C(C)(C)C1 (stereo not drawn) | > 100 µM (inactive) | > 100 µM (inactive) | > 100 µM (inactive) | > 100 µM (inactive) | > 100 µM (inactive) | > 100 µM (inactive) | > 100 µM (inactive) | > 100 µM (inactive) | > 100 µM (inactive) | > 100 µM (inactive) | > 100 µM (inactive) | > 100 | > 100 µM (inactive) | > 100 µM (inactive) | > 100 µM (inactive) | > 100 µM (inactive) | > 100 µM (inactive) |  | > 100 µM (inactive) | > 100 µM (inactive)
10 | Cc1cn(C2CC(SCCO)C(CO)O2)c(=O)[nH]c1=O (stereo not drawn) | > 100 µM (inactive) | > 100 µM (inactive) | > 100 µM (inactive) | > 100 µM (inactive) | > 100 µM (inactive) | > 100 µM (inactive) | > 100 µM (inactive) | > 100 µM (inactive) | > 100 µM (inactive) | > 100 µM (inactive) | > 100 µM (inactive) | > 100 | > 100 µM (inactive) | > 100 µM (inactive) |  | > 100 µM (inactive) | > 100 µM (inactive) | > 100 µM (inactive) | > 100 µM (inactive) | > 100 µM (inactive)
11 | C/C=C(/C)C(=O)O[C@H](C[C@@H](C)[C@H]1CC(c2ccoc2)OC1=O)[C@@]1(C)C(=O)CCC2O[C@]21C (stereo partly drawn) | > 100 µM (inactive) | > 100 µM (inactive) | > 100 µM (inactive) | > 100 µM (inactive) | > 100 µM (inactive) | > 100 µM (inactive) | > 100 µM (inactive) | > 100 µM (inactive) |  | > 100 µM (inactive) | > 100 µM (inactive) | > 100 | > 100 µM (inactive) | > 100 µM (inactive) | > 100 µM (inactive) | > 100 µM (inactive) | > 100 µM (inactive) | > 100 µM (inactive) | > 100 µM (inactive) | > 100 µM (inactive)
12 | Cc1ccc(OCC2OC(n3cnc4c(Cl)nc(Nc5cc(Cl)cc(Cl)c5)nc43)CC2Oc2ccc(C)cc2)cc1 (stereo not drawn) | > 100 µM (inactive) | > 100 µM (inactive) | > 100 µM (inactive) | > 100 µM (inactive) | > 100 µM (inactive) | > 100 µM (inactive) | > 100 µM (inactive) | > 100 µM (inactive) | > 100 µM (inactive) | > 100 µM (inactive) | > 100 µM (inactive) | > 100 | > 100 µM (inactive) | > 100 µM (inactive) |  | > 100 µM (inactive) | > 100 µM (inactive) | > 100 µM (inactive) | > 100 µM (inactive) | > 100 µM (inactive)
13 | COc1ccc(/C=C2/NC(=S)N=C2Cl)cc1 | > 100 µM (inactive) | > 100 µM (inactive) | > 100 µM (inactive) | > 100 µM (inactive) | > 100 µM (inactive) | > 100 µM (inactive) | > 100 µM (inactive) | > 100 µM (inactive) | > 100 µM (inactive) | > 100 µM (inactive) | > 100 µM (inactive) | > 100 | > 100 µM (inactive) |  | > 100 µM (inactive) | > 100 µM (inactive) | > 100 µM (inactive) | > 100 µM (inactive) | > 100 µM (inactive) | > 100 µM (inactive)
14 | CCOC(=O)C1(N)CC1 | > 100 µM (inactive) | > 100 µM (inactive) | > 100 µM (inactive) | > 100 µM (inactive) | > 100 µM (inactive) | > 100 µM (inactive) | > 100 µM (inactive) | > 100 µM (inactive) | > 100 µM (inactive) |  | > 100 µM (inactive) | > 100 | > 100 µM (inactive) | > 100 µM (inactive) | > 100 µM (inactive) | > 100 µM (inactive) | > 100 µM (inactive) | > 100 µM (inactive) | > 100 µM (inactive) | > 100 µM (inactive)
15 | COC1O[C@@H]2CCN3C(=O)[C@@H](OC(=O)c4ccc([N+](=O)[O-])cc4)[C@H]1C23 (stereo partly drawn) | > 100 µM (inactive) | > 100 µM (inactive) | > 100 µM (inactive) | > 100 µM (inactive) | > 100 µM (inactive) | > 100 µM (inactive) | 64.7 µM (inactive) | > 100 µM (inactive) | > 100 µM (inactive) |  | > 100 µM (inactive) |  | > 100 µM (inactive) | > 100 µM (inactive) | > 100 µM (inactive) | > 100 µM (inactive) | > 100 µM (inactive) | > 100 µM (inactive) | > 100 µM (inactive) | > 100 µM (inactive)
